Consider three molecules from article PMC7604895, “Identification of a Novel Substrate-Derived Spermine Oxidase Inhibitor” (Acta Naturae, 2020).

Common to all, as to format: biochemical
Test [1] has as its target T1, spermine oxidase (SMOX) (Homo sapiens, UniProt Q9NWM0).
T1 construct: human SMOX expressed from pET15b in E. coli BL21(DE3), polyhistidine tag removed by thrombin
As to the kind of experiment: luminol-HRP chemiluminescent H2O2 assay with purified SMOX, […] Spm substrate, […] min preincubation.

For test [2], the target named is T1, spermine oxidase (SMOX). In words: luminol-HRP chemiluminescent H2O2 assay with purified SMOX, […] Spm substrate (positive control inhibitor).
Test [3] deals with T1, spermine oxidase (SMOX). As to the kind of experiment: substrate turnover by purified SMOX, luminol-HRP chemiluminescent H2O2 detection.

T1 sequence (Q9NWM0 whole entry): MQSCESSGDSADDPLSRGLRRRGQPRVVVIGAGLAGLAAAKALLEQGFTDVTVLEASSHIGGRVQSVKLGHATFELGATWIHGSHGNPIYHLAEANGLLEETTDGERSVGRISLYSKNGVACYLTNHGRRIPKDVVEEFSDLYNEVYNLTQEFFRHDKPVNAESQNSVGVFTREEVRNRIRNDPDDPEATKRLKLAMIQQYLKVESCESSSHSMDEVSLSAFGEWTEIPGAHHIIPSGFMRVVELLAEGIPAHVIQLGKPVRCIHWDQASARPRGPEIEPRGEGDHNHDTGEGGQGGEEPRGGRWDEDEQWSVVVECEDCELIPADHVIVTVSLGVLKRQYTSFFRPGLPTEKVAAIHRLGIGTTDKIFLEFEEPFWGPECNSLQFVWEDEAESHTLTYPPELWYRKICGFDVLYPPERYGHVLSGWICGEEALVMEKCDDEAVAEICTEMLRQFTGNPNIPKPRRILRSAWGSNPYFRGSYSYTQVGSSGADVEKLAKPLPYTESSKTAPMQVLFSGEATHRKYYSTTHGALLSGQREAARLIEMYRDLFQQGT

By IC50 is commonly meant the midpoint of a concentration-inhibition curve. The low end stands for greater potency, the high end for weaker potency. Turning to `C=C(CN)CNCCCCNCC(=C)CN` [2,11-Met2-Spm, 1,12-diamino-2,11-bis(methylidene)-4,9-diazadodecane], in test [1], the IC50 was determined as 169 µM.
`C=C=CCNCCCCNCC=C=C` [MDL72527, N1,N4-(bis(2,3-butadienyl)-1,4-butanediamine)] had an IC50 in test [2] of 100 µM.
As for `NCCCNCCCCNCCCN` [Spm, spermine], in test [3], the “substrate turnover by purified SMOX, luminol-HRP chemiluminescent H2O2 detection” value was “SMOX activity was measured using a chemiluminescent enzyme-based assay detecting the formation of H2O2 in the presence of Spm”.
